# PMC7853623, “Dose- and time-dependent tolerability and efficacy of organo-osmium complex FY26 and its tissue pharmacokinetics in hepatocarcinoma-bearing mice” (Metallomics: Integrated Biometal Science, 2020)
# Key:
# [1] = Tumour and liver osmium uptake after a single ip dose (Experiment 5, ICP-MS); format: in vivo, C57Bl/6 mice
# Description: Experiment 5 determined FY26⋅Cl uptake in mouse tumour and liver. Hepa1–6-bearing mice were randomly assigned to either treatment or control groups. They received a single ip injection of 5, 10, or 20 mg/kg of FY26⋅Cl or 0.1 M PBS (vehicle) at ZT6 (Table 1). The mice from pre-set subgroups were culled at 6, 24, or 48 h after injection. The subcutaneous tumours in both flanks, as well as liver, spleen, one kidney, an ileum, and a colon segment and brain were sampled and stored at −80°C.
# (§1) For Experiments 1 and 2, FY26⋅PF6 was diluted in the vehicle, composed of 1% Tween 80 (Sigma-Aldrich, Gillingham, UK), 5% DMSO (Corning, New York, USA) and 94% of 0.9% saline (Prep room, Life Sciences, University of Warwick) under laminar flow. FY26⋅PF6 concentration was confirmed with ICP-MS. For Experiments 3–5, using FY26⋅Cl, a stock solution of 50 mg/ml FY26⋅Cl was prepared in 0.9% saline on the day of injection and diluted as required; the vehicle consisted of 0.9% saline.
# Liver tissue was homogenized by manual mechanical grinding (pestle and mortar) while frozen under liquid N2. Once thawed, ∼90–110 mg of homogenized tissue was pipetted into microwave reaction vessels (10 ml), and tetramethylammonium hydroxide (TMAH, 25% m/v, 2 ml) was added. Tumour tissue was not homogenized and instead digested as whole tissue. It was weighed directly into microwave vials and TMAH was added (100 µl per 5 mg tissue, minimum of 500 µl added). The samples were digested via microwave irradiation (CEM SP-D Discover® microwave reactor, ≥300 W, ≥450 psi) at 200°C for 10 min. Digested samples were diluted in one part DDIW, and then centrifuged at 9000 rpm for 10 min at 20°C. The final analytical samples were prepared by a further 1 in 12.5 dilution in DDIW (total dilution of 1 in 25), ensuring a final TMAH concentration of 1% and total dissolved solids <0.1% […]. TMAH digestion was selected to circumvent the formation of volatile Os species with nitric acid.
# Analyses of digested tissue samples were carried out on an Agilent Technologies ICP-MS 7900 spectrometer in a basic aqueous matrix of TMAH (1%, m/v). The osmium concentrations were determined via isotopic detection of ^189Os in gas (He) and no-gas modes, and samples were referenced internally to ^100Ru (10 ppb). A concentration calibration curve was produced by serial dilutions of an osmium standard (1000 ppm) in 1% TMAH: 0, 0.1, 0.25, 0.5, 1, 2.5, 5, 10, 25, 50, 100, 250, 500, and 1000 ppb.
# [2] = system: Hepa1–6-Per2-luc hepatocarcinoma tumours; test: Antitumour efficacy in Hepa1–6-bearing C57Bl/6 mice (Experiments 3 and 4); format: in vivo; settings: for percentage tumour inhibition relative to control: Experiment 4, end
# Description: (§2) Male CD1-Foxn1^nu or C57Bl/6 (B6) mice aged 5–10 weeks (Janvier, Le Genest St Isle, France) were housed in groups of three to four mice per cage in temperature-controlled (23 ± 1°C), ventilated (100 ± 10 l/min), and light-tight chronobiological animal facilities (Eurobioconcept, Bonneuil s/Marne, France). They were synchronized with an alternation of 12 h of light (L) and 12 h of darkness (D) (LD12:12), with light starting at 07:00, and had ad libitum access to food and water throughout all the experiments. In line with convention, onset of light and that of darkness are referred to as Zeitgeber time 0 (ZT0) and ZT12, respectively. After one or more weeks on this regimen and on the day prior to tumour inoculation, both flanks of each B6 mouse were shaved using clippers.
# Mouse hepatocarcinoma (Hepa1–6, ATCC® CRL-1830™) was kindly provided by S. Dulong (INSERM U935, Villejuif, France), following their stable transfection with the Per2-luc [pLV7-Bsd-P(Per2)-dLuc] reporter constructs within the C5SYS ERASYSBIO+ project (FP7). Mouse Hepa1–6-Per2-luc cells were cultured in 15-cm Petri dishes until they reached 80% confluency. On the day of tumour inoculation, the cells were trypsinized and resuspended at a concentration of 10^6 cells/100 µl in PBS solution alone (Experiments 1 and 2) or with 1:1 MatriGel™ (Corning, Flintshire, UK) (Experiments 3–5) and kept on ice until injected.
# (§3) The mice, aged 8–10 weeks, were anesthetized under isoflurane and Hepa1–6-Per2-luc cells were injected subcutaneously in both postero-lateral flanks of each mouse. Mice were then inspected and weighed daily until experiment completion. Tumour sites were inspected daily until tumours became palpable and amenable to daily measurements of perpendicular diameters using callipers. Measurements were always taken at the same circadian time.
# (§4) Mean daily tumour weight per mouse was calculated as the average volume of the right and left flank tumours according to (L × W^2)/2, where L is the larger and W the smaller perpendicular diameter, and 1 cm^3 corresponds to 1 g. Mice with an estimated tumour weight exceeding 10% of their body weight or those in poor general condition or loosing >15% of their starting body weight were euthanized, in compliance with our Home Office Project Licence specifications approved by the Animals in Science Committee and Animal Welfare and Ethical Review Body.
# (§5) Experiment 3 aimed at assessing the efficacy and tolerability of the more soluble formulation of FY26⋅Cl in Hepa1–6-bearing C57Bl/6 mice. The mice were randomized to receive vehicle or FY26⋅Cl, at a cumulative dose of 60 mg/kg. Treated mice received ip injections of 20 mg/kg of FY26⋅Cl at ZT6 12, 14, and 17 days after tumour inoculation. Control mice received ip vehicle on the same days.
# (§6) Experiment 4 aimed at confirming efficacy and optimizing timing and scheduling of the same cumulative dose of 60 mg/kg of FY26⋅Cl. Mice were randomized to receive either vehicle or FY26⋅Cl as four injections of 15 mg/kg at ZT6 or ZT18 on days 11, 14, 17, and 21.
# as §1
# (§7) Body weight data were expressed as % body weight measured on the first treatment day. Tumour weights for individually treated mice were expressed as % of the median control values, in order to determine % inhibition. Mean and standard error or median and interquartiles were computed for the different treatment groups and experimental conditions, i.e. drug timing and day of assessment. Groups were compared using parametric or non-parametric ANOVAs, respectively.
# [3] = Tolerability (survival, body weight) in Hepa1–6-bearing C57Bl/6 mice (Experiments 3 and 4); format: in vivo
# Description: as §2, §3, §4, §5, §6, §1, §7
compound,measurement,setting,value
CN(C)c1ccc(N=Nc2ccccn2)cc1.Cc1ccc(C(C)C)cc1.[Cl-].[I-].[Os+2] [FY26⋅Cl],liver [Os] levels at 6 h relative to 20 or 10 mg/kg,"[1]; 5 mg/kg single ip, 6 h",nearly halved
same,liver [Os] levels over time,[1]; 20 mg/kg single ip,remained almost constant until 48 h
same,tumour [Os] levels over time,"[1]; 20 mg/kg single ip, 6, 24 and 48 h",remained almost constant over time
same,liver [Os] concentrations over time,[1]; 10 and 5 mg/kg single ip,decreased sharply at 24 h and remained stable until 48 h
same,tumour [Os] levels over time,"[1]; 10 and 5 mg/kg single ip, tumours of both flanks",decreased at 24 h and slightly increased at 48 h
same,tumour uptake as compared to liver (less),"[1]; 6 h post-treatment, single ip dose at ZT6, both tumours",~10 fold
same,median percentage tumour inhibition relative to controls,"[2]; Experiment 3, at completion, 20 mg/kg ip × 3 at ZT6",76.5%
same,"median tumour weight, treatment group","[2]; Experiment 3, day 20, 20 mg/kg ip × 3 at ZT6 (control 128.8 mg)",30.2 mg
same,median percentage tumour inhibition relative to controls,"[2]; Experiment 4, at completion, 15 mg/kg ip × 4, irrespective of dosing time",42.6%
same,"median tumour weight, treatment groups ZT6 and ZT18","[2]; Experiment 4, day 23, 15 mg/kg ip × 4 (control 213.2 mg)",122.3 mg
same,percentage tumour inhibition relative to control,[2]; 15 mg/kg ip × 4 at ZT6,12.5%
same,percentage tumour inhibition relative to control,[2]; 15 mg/kg ip × 4 at ZT18,66%
same,tumour inhibition as compared to controls,"[2]; hepatocarcinoma-bearing mice, overall statement in discussion",~60%
same,treated mice alive at completion,"[3]; Experiment 4, 15 mg/kg ip × 4, ZT6 and ZT18",45%
same,loss of body weight before treatment,[3]; after a cumulative dose of 60 mg/kg,~10% (±3.2%)
